The test system of assay [1] is MDA-MB-231 (breast cancer). As to the kind of experiment: Growth inhibition of MDA-MB-231 (NCI-60 human tumor cell line screen). The format is cell-based.
The target of assay [2] is T1, AXL receptor tyrosine kinase (AXL) (Homo sapiens, UniProt P30530).
T1 construct: purchased Eurofins DiscoverX (KINOMEscan service)
T1 sequence (P30530 26-894): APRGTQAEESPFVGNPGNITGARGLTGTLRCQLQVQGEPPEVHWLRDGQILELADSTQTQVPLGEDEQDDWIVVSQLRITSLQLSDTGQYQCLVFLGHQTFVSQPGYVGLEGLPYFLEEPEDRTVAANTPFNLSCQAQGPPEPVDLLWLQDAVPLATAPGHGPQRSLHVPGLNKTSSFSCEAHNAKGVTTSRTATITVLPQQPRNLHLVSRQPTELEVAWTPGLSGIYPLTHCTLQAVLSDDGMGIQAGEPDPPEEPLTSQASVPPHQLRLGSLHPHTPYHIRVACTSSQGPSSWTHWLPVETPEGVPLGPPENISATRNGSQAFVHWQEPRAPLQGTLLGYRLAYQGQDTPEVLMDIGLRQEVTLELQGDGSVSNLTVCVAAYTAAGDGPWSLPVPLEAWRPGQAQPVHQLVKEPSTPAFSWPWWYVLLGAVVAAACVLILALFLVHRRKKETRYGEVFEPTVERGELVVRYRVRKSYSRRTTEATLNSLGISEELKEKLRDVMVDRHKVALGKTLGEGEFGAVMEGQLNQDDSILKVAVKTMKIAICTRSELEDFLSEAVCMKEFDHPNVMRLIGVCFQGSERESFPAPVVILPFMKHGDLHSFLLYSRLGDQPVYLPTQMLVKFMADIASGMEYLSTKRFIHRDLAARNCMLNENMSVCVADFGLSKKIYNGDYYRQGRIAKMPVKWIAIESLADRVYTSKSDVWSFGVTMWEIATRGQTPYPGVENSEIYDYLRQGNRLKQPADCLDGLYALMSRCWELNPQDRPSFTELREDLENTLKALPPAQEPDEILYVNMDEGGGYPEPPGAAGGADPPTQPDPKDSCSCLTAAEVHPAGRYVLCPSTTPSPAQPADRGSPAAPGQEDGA
As to the kind of experiment: KINOMEscan competition binding assay (Eurofins DiscoverX), AXL. How it is done: The affinity of several compounds hereof having a substituent on the imidazo[1,2-b]pyridazine moiety at position-6, wherein the substituent comprised one or more ring moieties was evaluated with respect to two TAM kinases: AXL and MERTK. […] The assay uses DNA-tagged kinase, an immobilized ligand, and the test compound. Quantitative polymerase chain reaction (PCR) of the DNT tag was then used to measure the ability of the tested compound to displace the immobilized ligand.

Assay [3] deals with CT-26 C2 tumor cells. Put plainly: CT-26 in vivo tumor reduction. Details: species or system BALB/c female mouse. The note with it: CT-26, day 17 from start of dosing, oral QD. The procedure: Each BALB/c female mouse was inoculated subcutaneously at the right flank with CT-26 C2 tumor cells (0.3×10^6/mouse) in 0.1 mL PBS for tumor development. Treatments for the efficacy study were started on day 10 after tumor inoculation when the average tumor size reached approximately 71 mm^3. Each group consisted of 6 tumor-bearing mice. Vehicle control was 25 mM citrate buffer (pH 2.5). HSND80 was dosed orally QD at 15 mg/Kg for 4 days and 10 mg/Kg afterwards. HSND100 was dosed at 15 mg/Kg. Mice were dosed 5 days on and 2 days off (drug holiday). Tumors were measured every other day (L, W, H) to give tumor volume in mm^3.

The target in assay [4] is T2, MER Proto-Oncogene tyrosine kinase (MERTK) (Homo sapiens, UniProt Q12866).
T2 construct: purchased Eurofins DiscoverX (KINOMEscan service)
T2 sequence (Q12866 21-999): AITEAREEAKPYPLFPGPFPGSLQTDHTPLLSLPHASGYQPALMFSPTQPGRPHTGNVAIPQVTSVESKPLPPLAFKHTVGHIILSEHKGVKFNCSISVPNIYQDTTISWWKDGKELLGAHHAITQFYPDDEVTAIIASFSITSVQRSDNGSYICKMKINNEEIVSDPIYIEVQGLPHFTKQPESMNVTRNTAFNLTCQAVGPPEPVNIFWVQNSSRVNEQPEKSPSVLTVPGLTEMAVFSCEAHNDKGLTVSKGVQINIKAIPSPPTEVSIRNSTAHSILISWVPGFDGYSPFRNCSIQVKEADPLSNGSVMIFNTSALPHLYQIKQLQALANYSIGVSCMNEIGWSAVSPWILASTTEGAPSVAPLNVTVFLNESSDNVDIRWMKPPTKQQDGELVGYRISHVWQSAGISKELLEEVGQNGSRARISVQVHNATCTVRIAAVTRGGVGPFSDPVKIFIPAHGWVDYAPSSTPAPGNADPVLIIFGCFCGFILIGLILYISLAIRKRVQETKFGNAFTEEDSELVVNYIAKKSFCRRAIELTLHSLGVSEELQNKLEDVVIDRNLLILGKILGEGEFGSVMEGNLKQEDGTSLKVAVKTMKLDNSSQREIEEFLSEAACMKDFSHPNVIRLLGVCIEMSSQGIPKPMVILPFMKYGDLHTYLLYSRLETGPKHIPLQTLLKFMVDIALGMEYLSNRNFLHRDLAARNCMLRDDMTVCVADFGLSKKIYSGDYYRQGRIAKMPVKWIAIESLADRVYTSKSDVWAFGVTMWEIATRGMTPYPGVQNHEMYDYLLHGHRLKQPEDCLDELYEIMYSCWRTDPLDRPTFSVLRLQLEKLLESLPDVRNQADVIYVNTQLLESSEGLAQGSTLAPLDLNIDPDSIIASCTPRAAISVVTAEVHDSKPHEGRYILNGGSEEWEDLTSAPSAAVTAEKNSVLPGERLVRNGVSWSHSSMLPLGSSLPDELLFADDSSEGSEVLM
As to the kind of experiment: KINOMEscan competition binding assay (Eurofins DiscoverX), MERTK. The procedure: The affinity of several compounds hereof having a substituent on the imidazo[1,2-b]pyridazine moiety at position-6, wherein the substituent comprised one or more ring moieties was evaluated with respect to two TAM kinases: AXL and MERTK. Perhaps more specifically, the equilibrium dissociation constant between each of compounds HSND141, compound HSND149, HSND150, HSND151, and HSND80 and AXL and MERTK was evaluated at Eurofins DiscoverX using KINOMEscan™, which is a competition binding assay that quantitively measured the ability of each tested compound to displace an immobilized, active-site directed ligand. The assay uses DNA-tagged kinase, an immobilized ligand, and the test compound. Quantitative polymerase chain reaction (PCR) of the DNT tag was then used to measure the ability of the tested compound to displace the immobilized ligand.

For assay [5], the system named is multiple myeloma cell lines. Put plainly: Inhibition of multiple myeloma cell lines. The format is cell-based, human. The note with it: FIG. 4.

SMILES strings stand for the structures. Like-named read-outs stand apart in the source and are kept apart here. A value given as a limit tells only on which side of the number the result lay.

As a reminder, the inhibition is the change of the read-out against control, counted positive when it falls. High values mean a strong effect, low ones a weak effect. What is called IC50 is the concentration that gives 50% inhibition. The Kd is the free concentration of one partner at which half of the binding sites on the other are occupied at equilibrium, for simple one-to-one binding.

`C[C@@H]1CN(c2ccc3ncc(C#Cc4cncc(C(=O)Nc5ccc(CN6CCN(C)CC6)c(C(F)(F)F)c5)c4)n3n2)C[C@H](C)O1` [HSND80, 5-((6-((2S,6R)-2,6-Dimethylmorpholino)imidazo[1,2-b]pyridazin-3-yl)ethynyl)-N-(4-((4-methylpiperazin-1-yl)methyl)-3-(trifluoromethyl)phenyl)nicotinamide]: the inhibition at 0.2 µM in assay [1] (200 nM) stood at 100%. Besides, inhibition in assay [1] (72 hours) was half-maximal at 8.6 nM (IC50). In addition, the Kd in assay [2] (FIG. 6A, replicate 1, read-out: Kd AXL, replicate 1) was 0.77 nM; in assay [2] (FIG. 6B, replicate 2, read-out: Kd AXL, replicate 2), 1.3 nM; in assay [2] (Table 1, DiscoverX Eurofins, read-out: Kd AXL) it was 1.1 nM; in assay [4] (FIG. 7A, replicate 1, read-out: Kd MERTK, replicate 1) it was 1.6 nM; in assay [4] (FIG. 7B, replicate 2, read-out: Kd MERTK, replicate 2) it was 2.1 nM; in assay [4] (Table 1, DiscoverX Eurofins, read-out: Kd MERTK) it was less than 0.17 nM. Moreover, in assay [3], the “tumor reduction compared to vehicle control” value was 45%. The “inhibition of multiple myeloma cell lines” value in assay [5] was “potently inhibited”.

(Values after patent US20250243203A1, “NICOTINAMIDE- AND BENZAMIDE-BASED COMPOUNDS, CONJUGATES, AND COMPOSITIONS AS INHIBITORS OF TRANSLATIONAL- AND TRANSCRIPTIONAL-RELATED KINASES” (PURDUE RESEARCH FOUNDATION, priority 2022, published 2025).)
